{"source": "paper PMC5339036", "about": "(Angewandte Chemie (International ed. in English), 2017)", "key": {"[1]": {"settings": "second generation clinical analogue; cited from earlier work"}, "[2]": {"settings": "second generation clinical analogue; cited from earlier work", "remark": "listed apart in the source"}, "[3]": {"assay": "cancer cell line cytotoxicity assay", "settings": "human, A549 cells (non-small cell lung cancer cell line)"}, "Hsp90α": {"molecular_target": "Hsp90α (Homo sapiens, UniProt P07900)", "assay": "standard Hsp90α inhibition", "format": "binding"}, "[4]": {"system": "axolotl (Ambystoma mexicanum) embryo tail regeneration"}, "[5]": {"system": "human non-small cell lung A549"}}, "note": "Counter-ions that a name gives are not always drawn.", "data": [{"compound": "C=CCNc1c(O)cc2c(O)c1C[C@@H](C)C[C@H](OC)[C@H](O)[C@@H](C)/C=C(\\C)[C@H](OC(N)=O)[C@@H](OC)/C=C\\C=C(/C)C(=O)N2", "note": "[retaspimycin hydrochloride/IPI-504, retaspimycin hydrochloride]", "values": [{"measurement": "solubility relative to first generation analogues", "setting": "[1]", "value": "improved solubility"}, {"measurement": "hepatotoxicity relative to first generation analogues", "setting": "[2]", "value": "reduced hepatotoxicity"}]}, {"compound": "COc1c(O)cc2cc1C[C@@H](C)C[C@H](OC)[C@H](O)[C@@H](C)/C=C(\\C)[C@H](OC(N)=O)[C@@H](OC)CC/C=C(\\C)C(=O)N2", "note": "[reblastatin]", "values": [{"measurement": "IC50", "setting": "[3]", "value": 0.7, "unit": "µM"}, {"measurement": "IC50", "setting": "Hsp90α", "value": "0.005 to 0.03", "unit": "µM"}]}, {"compound": "COC1=C2C[C@@H](C)C[C@H](OC)[C@H](O)[C@@H](C)/C=C(\\C)[C@H](OC(N)=O)[C@@H](OC)/C=C\\C=C(/C)C(=O)NC(=CC1=O)C2=O", "note": "[Gdm, Geldanamycin]", "values": [{"measurement": "dose-response: observation at the highest dose", "setting": "[4]; 10 μM, axolotl embryos", "value": "developmental abnormalities and toxicity"}, {"measurement": "axolotls dead at day 7", "setting": "[4]; axolotl (Ambystoma mexicanum), in vivo, 7 day", "value": 3}, {"measurement": "IC50", "setting": "[3]", "value": 0.001, "unit": "µM"}]}, {"compound": "17-O-demethyl-reblastatin", "values": [{"measurement": "IC50", "setting": "[5]", "value": "> 50", "unit": "µM"}]}]}
